This is an account of results in ChEMBL document CHEMBL1201862, “PubChem BioAssay data set” (2004).

Common to all, as to type: functional
Experiment [1] deals with T1, Neuropeptides B/W receptor type 1 (Homo sapiens, UniProt P48145).
T1 sequence (P48145 whole entry): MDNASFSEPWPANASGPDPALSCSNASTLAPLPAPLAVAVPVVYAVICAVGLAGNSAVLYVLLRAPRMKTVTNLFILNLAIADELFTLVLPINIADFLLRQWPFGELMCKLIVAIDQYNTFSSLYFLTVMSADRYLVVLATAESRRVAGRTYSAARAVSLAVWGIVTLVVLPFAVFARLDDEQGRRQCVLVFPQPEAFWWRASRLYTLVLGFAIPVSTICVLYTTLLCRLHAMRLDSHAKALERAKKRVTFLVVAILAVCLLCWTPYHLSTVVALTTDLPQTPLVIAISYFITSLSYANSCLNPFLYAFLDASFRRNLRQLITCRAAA
Description: human NPBW1 receptor blockade, IC50 – cell-based, fluorescence, dose response, set 5, late-stage follow-up (AID 588566).

The target in experiment [2] is Melanin-concentrating hormone receptor 1 (Homo sapiens, UniProt Q99705). The experiment in a line: Late-stage fluorescence-based counterscreen for antagonists of the G-protein coupled receptor 7 (GPR7): cell-based dose response assay to identify antagonists of the melanin-concentrating hormone receptor 1 (MCHR1) Set 5.
Experiment [3] has as its target T2, Apoptotic protease-activating factor 1 (Homo sapiens, UniProt O14727).
T2 sequence (O14727 whole entry): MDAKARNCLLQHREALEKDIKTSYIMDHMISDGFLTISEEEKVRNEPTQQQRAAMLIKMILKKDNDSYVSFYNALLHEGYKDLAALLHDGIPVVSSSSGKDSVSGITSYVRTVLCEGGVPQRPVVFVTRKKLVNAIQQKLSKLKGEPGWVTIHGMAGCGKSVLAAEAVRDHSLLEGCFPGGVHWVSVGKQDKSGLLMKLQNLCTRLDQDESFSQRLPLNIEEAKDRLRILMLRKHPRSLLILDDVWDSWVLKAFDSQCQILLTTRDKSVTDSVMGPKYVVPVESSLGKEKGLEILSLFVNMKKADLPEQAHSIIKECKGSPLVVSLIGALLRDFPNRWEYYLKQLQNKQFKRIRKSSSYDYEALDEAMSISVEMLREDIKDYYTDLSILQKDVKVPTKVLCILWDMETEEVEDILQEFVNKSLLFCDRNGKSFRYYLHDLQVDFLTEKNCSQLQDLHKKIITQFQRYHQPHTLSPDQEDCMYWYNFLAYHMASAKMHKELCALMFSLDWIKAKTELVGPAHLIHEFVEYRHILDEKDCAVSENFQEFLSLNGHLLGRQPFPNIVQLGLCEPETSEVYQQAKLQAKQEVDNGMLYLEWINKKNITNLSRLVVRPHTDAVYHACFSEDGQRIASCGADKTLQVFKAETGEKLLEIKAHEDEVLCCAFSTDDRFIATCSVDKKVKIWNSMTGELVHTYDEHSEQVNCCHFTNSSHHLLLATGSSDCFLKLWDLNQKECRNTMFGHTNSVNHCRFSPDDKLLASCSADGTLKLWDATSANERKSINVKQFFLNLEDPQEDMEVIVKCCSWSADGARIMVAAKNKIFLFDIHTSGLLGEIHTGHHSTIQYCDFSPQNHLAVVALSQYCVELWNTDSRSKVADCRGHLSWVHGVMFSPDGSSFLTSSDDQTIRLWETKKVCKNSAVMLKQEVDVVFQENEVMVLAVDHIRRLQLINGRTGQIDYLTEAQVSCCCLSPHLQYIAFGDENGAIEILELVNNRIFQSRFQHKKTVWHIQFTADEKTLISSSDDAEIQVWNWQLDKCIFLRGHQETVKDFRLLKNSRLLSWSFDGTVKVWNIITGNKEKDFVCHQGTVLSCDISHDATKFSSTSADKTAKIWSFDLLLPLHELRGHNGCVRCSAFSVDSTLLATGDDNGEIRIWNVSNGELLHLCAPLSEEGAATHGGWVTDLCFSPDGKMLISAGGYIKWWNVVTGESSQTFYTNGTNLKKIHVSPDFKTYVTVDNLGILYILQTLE
The experiment in a line: SAR analysis of small molecule inhibitors of Apaf-1 in a Fluorescent assay. Particulars: read-out: IC50_Mean.

Experiment [4] deals with Ribosomal protein S6 kinase alpha-3 (Homo sapiens, UniProt P51812).
The target of experiment [5] is Dual specificity protein kinase CLK2 (Homo sapiens, UniProt P49760).
The target of experiment [6] is Dual specificity mitogen-activated protein kinase kinase 1 (Homo sapiens, UniProt Q02750). The experiment in a line: Navigating the Kinome. Panel member name: MAP2K1.
Experiment [7] deals with Serine/threonine-protein kinase TBK1 (Homo sapiens, UniProt Q9UHD2). The experiment in a line: Navigating the Kinome. Panel member name: TBK1.
Chain of Serine/threonine-protein kinase TBK1 (Q9UHD2 whole entry): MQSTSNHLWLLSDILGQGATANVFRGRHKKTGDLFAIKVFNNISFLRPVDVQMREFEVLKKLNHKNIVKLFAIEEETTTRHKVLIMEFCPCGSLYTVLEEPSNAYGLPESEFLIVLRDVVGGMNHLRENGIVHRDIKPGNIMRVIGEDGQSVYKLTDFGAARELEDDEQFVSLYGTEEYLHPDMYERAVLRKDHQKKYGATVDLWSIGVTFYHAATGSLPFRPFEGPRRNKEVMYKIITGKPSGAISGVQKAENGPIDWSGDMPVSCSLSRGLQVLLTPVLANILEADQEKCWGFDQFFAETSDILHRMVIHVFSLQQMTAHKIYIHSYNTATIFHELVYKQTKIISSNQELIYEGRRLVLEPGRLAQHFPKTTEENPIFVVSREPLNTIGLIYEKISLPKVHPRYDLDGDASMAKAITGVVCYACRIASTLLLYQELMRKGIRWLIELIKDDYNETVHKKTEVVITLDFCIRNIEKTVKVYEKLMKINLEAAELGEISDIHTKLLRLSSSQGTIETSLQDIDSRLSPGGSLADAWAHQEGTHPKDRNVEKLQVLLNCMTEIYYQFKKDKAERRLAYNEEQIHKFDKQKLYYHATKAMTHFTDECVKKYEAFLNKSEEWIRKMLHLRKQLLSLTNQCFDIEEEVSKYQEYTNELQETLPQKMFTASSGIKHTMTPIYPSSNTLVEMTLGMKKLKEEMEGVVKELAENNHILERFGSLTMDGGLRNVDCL
The target in experiment [8] is 5'-AMP-activated protein kinase catalytic subunit alpha-1 (Homo sapiens, UniProt Q13131).
Experiment [9] concerns the target Proto-oncogene tyrosine-protein kinase receptor Ret (Homo sapiens, UniProt P07949).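 Further: measured within a kinome-wide profiling panel, RET as the panel member.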
For experiment [10], the target named is Tyrosine-protein kinase receptor TYRO3 (Homo sapiens, UniProt Q06418).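 Further: TYRO3 value obtained as one member of a kinome-wide profiling panel.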
Experiment [11] concerns the target Serine/threonine-protein kinase D3 (Homo sapiens, UniProt O94806).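 Further: determined within a kinase panel screen, with PRKCN as the panel member.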
In experiment [12] the target is Tyrosine-protein kinase Lck (Homo sapiens, UniProt P06239).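 Further: lck was assayed as one member of a kinase panel.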
Experiment [13] concerns the target Death-associated protein kinase 3 (Homo sapiens, UniProt O43293).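 Further: measured as one member of a kinome-wide profiling panel.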
Experiment [14] concerns the target Mitogen-activated protein kinase 8 (Homo sapiens, UniProt P45983).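 Further: value comes from one member of a kinome-wide kinase profiling panel.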
Experiment [15] concerns the target Serine/threonine-protein kinase pim-1 (Homo sapiens, UniProt P11309).
The target in experiment [16] is Aurora kinase A (Homo sapiens, UniProt O14965).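 Further: value from the Navigating the Kinome kinase panel profiling, panel entry STK6.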
The target in experiment [17] is Tyrosine-protein kinase BTK (Homo sapiens, UniProt Q06187).
In experiment [18] the target is Serine/threonine-protein kinase PAK 4 (Homo sapiens, UniProt O96013).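 Further: value obtained within a kinome profiling panel in which PAK4 was one of the panel members.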
Chain of Serine/threonine-protein kinase PAK 4 (O96013 whole entry): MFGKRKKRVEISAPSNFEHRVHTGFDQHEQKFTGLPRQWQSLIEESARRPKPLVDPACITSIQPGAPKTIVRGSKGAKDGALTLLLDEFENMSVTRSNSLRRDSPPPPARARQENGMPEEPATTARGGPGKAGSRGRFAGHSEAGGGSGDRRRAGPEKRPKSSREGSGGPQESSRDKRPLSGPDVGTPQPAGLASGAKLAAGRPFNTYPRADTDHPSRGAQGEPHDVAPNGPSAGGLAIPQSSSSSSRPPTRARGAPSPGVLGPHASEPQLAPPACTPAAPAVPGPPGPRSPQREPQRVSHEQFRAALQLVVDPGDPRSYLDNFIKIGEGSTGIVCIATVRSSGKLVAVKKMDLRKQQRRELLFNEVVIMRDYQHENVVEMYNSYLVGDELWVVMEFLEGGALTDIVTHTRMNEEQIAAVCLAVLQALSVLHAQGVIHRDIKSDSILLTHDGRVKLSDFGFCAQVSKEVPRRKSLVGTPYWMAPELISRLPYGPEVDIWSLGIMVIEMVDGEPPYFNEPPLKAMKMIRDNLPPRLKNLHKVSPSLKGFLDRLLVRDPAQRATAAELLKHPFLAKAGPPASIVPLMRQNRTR
Experiment [19] concerns the target Tyrosine-protein kinase JAK3 (Homo sapiens, UniProt P52333).
Experiment [20] deals with Mitogen-activated protein kinase 9 (Homo sapiens, UniProt P45984).
In experiment [21] the target is LIM domain kinase 1 (Homo sapiens, UniProt P53667). Description: Navigating the Kinome. Panel member name: LIMK1.
Chain of LIM domain kinase 1 (P53667 whole entry, the tested form may be a part): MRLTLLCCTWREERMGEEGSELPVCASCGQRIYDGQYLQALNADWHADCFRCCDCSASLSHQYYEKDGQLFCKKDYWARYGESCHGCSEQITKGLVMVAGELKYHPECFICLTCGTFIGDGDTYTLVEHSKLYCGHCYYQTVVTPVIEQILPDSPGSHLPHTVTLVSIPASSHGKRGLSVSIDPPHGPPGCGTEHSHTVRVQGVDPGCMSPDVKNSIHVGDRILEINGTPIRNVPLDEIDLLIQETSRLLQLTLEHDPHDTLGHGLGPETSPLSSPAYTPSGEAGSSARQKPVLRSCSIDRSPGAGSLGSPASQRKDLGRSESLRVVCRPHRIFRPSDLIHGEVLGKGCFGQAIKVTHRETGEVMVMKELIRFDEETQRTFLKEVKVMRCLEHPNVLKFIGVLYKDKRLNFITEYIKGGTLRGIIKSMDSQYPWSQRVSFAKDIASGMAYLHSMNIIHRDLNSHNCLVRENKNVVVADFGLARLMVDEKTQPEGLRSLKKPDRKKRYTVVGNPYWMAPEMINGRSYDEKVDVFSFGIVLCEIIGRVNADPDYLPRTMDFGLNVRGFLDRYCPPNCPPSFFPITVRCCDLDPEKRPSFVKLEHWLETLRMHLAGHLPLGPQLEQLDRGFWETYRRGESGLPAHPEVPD
In experiment [22] the target is Serine/threonine-protein kinase TAO1 (Homo sapiens, UniProt Q7L7X3).
Chain of Serine/threonine-protein kinase TAO1 (Q7L7X3 whole entry): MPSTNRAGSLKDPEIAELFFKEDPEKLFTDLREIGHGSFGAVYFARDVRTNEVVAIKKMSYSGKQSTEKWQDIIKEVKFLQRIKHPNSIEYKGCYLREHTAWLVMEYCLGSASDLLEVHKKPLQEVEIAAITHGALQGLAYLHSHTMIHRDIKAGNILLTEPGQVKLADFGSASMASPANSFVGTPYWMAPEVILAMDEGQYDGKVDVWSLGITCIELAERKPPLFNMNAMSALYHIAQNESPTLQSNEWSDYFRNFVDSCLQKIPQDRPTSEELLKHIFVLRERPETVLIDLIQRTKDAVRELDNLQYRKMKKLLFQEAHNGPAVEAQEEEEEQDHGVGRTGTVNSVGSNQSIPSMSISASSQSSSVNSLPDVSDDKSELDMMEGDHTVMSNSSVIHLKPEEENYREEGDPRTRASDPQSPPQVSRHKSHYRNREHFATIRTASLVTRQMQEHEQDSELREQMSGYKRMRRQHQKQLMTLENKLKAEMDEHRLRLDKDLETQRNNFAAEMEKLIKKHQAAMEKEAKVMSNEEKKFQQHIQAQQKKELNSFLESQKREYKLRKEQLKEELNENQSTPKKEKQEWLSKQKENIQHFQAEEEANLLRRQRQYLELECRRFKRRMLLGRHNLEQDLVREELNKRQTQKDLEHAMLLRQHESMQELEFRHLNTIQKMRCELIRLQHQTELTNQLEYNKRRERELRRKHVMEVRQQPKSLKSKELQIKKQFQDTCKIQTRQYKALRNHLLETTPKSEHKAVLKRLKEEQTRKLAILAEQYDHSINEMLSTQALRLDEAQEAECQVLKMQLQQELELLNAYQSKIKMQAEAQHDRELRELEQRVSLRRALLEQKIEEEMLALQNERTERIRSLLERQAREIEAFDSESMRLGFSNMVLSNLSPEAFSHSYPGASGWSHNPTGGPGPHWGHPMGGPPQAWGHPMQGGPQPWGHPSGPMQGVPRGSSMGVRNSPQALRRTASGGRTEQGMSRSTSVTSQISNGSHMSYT
For experiment [23], the target named is High affinity nerve growth factor receptor (Homo sapiens, UniProt P04629).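 Further: NTRK1 tested as one member of a kinome-wide profiling panel.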
For experiment [24], the target named is Glycogen synthase kinase-3 alpha (Homo sapiens, UniProt P49840).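 Further: GSK3A result taken from a broad kinome-wide kinase panel.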
The target in experiment [25] is Hepatocyte growth factor receptor (Homo sapiens, UniProt P08581).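 Further: kinase panel profiling across the kinome, with MET as the panel member.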
In experiment [26] the target is Activated CDC42 kinase 1 (Homo sapiens, UniProt Q07912). Description: Navigating the Kinome. Panel member name: ACK1.
For experiment [27], the target named is Platelet-derived growth factor receptor beta (Homo sapiens, UniProt P09619).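 Further: value comes from a kinome panel, with PDGFRB tested as one panel member.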
Experiment [28] deals with Receptor-type tyrosine-protein kinase FLT3 (Homo sapiens, UniProt P36888).
In experiment [29] the target is Cyclin-dependent kinase 5 (Homo sapiens, UniProt Q00535).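 Further: CDK5 measured as one member of a kinase profiling panel.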
Experiment [30] addresses Dual specificity tyrosine-phosphorylation-regulated kinase 1B (Homo sapiens, UniProt Q9Y463). Description: Navigating the Kinome. Panel member name: DYRK1B.
For experiment [31], the target named is cAMP-dependent protein kinase catalytic subunit PRKX (Homo sapiens, UniProt P51817).
Chain of cAMP-dependent protein kinase catalytic subunit PRKX (P51817 whole entry): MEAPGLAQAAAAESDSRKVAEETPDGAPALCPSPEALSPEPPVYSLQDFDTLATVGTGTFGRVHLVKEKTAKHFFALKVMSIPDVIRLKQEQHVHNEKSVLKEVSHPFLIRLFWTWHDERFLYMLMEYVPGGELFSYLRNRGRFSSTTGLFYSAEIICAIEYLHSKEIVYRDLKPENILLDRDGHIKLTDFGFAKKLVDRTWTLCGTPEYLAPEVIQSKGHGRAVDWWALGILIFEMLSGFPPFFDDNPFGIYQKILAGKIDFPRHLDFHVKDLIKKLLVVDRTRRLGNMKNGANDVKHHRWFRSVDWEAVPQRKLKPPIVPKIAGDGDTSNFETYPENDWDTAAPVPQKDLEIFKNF
The target in experiment [32] is Focal adhesion kinase 1 (Homo sapiens, UniProt Q05397).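 Further: measured as one member of a kinome panel.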
Experiment [33] concerns the target Platelet-derived growth factor receptor alpha (Homo sapiens, UniProt P16234). Description: Navigating the Kinome. Panel member name: PDGFRA.
The target in experiment [34] is Leucine-rich repeat serine/threonine-protein kinase 2 (Homo sapiens, UniProt Q5S007).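 Further: value from a broad kinome-wide panel profiling study in which LRRK2 was one of the kinases tested.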
Experiment [35] addresses Aurora kinase B (Homo sapiens, UniProt Q96GD4).
Experiment [36] deals with Rho-associated protein kinase 1 (Homo sapiens, UniProt Q13464).
For experiment [37], the target named is Tyrosine-protein kinase Fyn (Homo sapiens, UniProt P06241).
In experiment [38] the target is Serine/threonine-protein kinase Nek2 (Homo sapiens, UniProt P51955).
Experiment [39] addresses Cyclin-dependent kinase 8 (Homo sapiens, UniProt P49336). Description: Navigating the Kinome. Panel member name: CDK8.
Experiment [40] concerns the target Cyclin-dependent kinase 7 (Homo sapiens, UniProt P50613).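 Further: value comes from a kinome-wide kinase profiling panel in which CDK7 is one member.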
Experiment [41] deals with Vascular endothelial growth factor receptor 1 (Homo sapiens, UniProt P17948).
The target of experiment [42] is Glycogen synthase kinase-3 beta (Homo sapiens, UniProt P49841).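 Further: value comes from a broad kinome profiling panel, with GSK3B as the panel member.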
The target of experiment [43] is Cyclin-dependent kinase 9 (Homo sapiens, UniProt P50750).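 Further: value from the CDK9 entry of a kinome-spanning kinase panel.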
In experiment [44] the target is BDNF/NT-3 growth factors receptor (Homo sapiens, UniProt Q16620).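 Further: NTRK2 measured as one member of a broad kinome-wide kinase profiling panel.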
Experiment [45] addresses cAMP-dependent protein kinase catalytic subunit alpha (Homo sapiens, UniProt P17612).
For experiment [46], the target named is Dual specificity protein kinase CLK4 (Homo sapiens, UniProt Q9HAZ1).
The target of experiment [47] is Mitogen-activated protein kinase kinase kinase kinase 4 (Homo sapiens, UniProt O95819).
For experiment [48], the target named is Macrophage-stimulating protein receptor (Homo sapiens, UniProt Q04912). Description: Navigating the Kinome. Panel member name: MST1R.
Experiment [49] concerns the target Dual specificity mitogen-activated protein kinase kinase 2 (Homo sapiens, UniProt P36507). The experiment in a line: Navigating the Kinome. Panel member name: MAP2K2.
Experiment [50] concerns the target Dual specificity tyrosine-phosphorylation-regulated kinase 1A (Homo sapiens, UniProt Q13627).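 Further: measured against DYRK1A as one member of a broad kinome profiling panel.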
Experiment [51] addresses Inhibitor of nuclear factor kappa-B kinase subunit epsilon (Homo sapiens, UniProt Q14164). Description: Navigating the Kinome. Panel member name: IKBKE.
In experiment [52] the target is Calcium/calmodulin-dependent protein kinase type II subunit alpha (Homo sapiens, UniProt Q9UQM7). The experiment in a line: Navigating the Kinome. Panel member name: CAMK2A.
Chain of Calcium/calmodulin-dependent protein kinase type II subunit alpha (Q9UQM7 whole entry): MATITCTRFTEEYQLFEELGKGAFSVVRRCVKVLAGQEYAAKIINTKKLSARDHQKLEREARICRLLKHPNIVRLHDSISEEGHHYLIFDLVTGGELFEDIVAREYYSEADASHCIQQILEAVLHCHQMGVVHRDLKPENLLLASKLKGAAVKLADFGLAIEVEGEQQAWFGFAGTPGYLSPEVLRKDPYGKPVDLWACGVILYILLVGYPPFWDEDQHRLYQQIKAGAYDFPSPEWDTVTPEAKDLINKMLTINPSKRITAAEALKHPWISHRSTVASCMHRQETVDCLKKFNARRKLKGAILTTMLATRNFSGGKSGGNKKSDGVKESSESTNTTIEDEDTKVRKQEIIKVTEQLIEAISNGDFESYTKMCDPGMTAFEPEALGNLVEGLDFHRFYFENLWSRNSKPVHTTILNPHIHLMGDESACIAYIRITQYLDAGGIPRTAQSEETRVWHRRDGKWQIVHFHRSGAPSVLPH
Experiment [53] concerns the target Leukocyte tyrosine kinase receptor (Homo sapiens, UniProt P29376). Description: Navigating the Kinome. Panel member name: LTK.
Experiment [54] has as its target Mitogen-activated protein kinase 14 (Homo sapiens, UniProt Q16539).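 Further: part of a kinome-wide panel, MAPK14 entry.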

Active and inactive are the calls of the source.

Chain of Cyclin-dependent kinase 7 (P50613 whole entry): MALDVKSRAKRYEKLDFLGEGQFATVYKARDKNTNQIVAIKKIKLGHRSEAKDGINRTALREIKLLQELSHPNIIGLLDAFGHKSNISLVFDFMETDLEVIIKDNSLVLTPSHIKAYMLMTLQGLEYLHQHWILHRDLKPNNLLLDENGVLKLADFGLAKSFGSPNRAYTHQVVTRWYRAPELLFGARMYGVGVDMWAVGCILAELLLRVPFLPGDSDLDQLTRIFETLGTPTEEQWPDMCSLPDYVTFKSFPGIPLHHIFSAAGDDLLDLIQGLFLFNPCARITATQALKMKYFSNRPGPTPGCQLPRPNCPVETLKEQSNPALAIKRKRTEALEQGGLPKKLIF
Chain of Mitogen-activated protein kinase 8 (P45983 whole entry): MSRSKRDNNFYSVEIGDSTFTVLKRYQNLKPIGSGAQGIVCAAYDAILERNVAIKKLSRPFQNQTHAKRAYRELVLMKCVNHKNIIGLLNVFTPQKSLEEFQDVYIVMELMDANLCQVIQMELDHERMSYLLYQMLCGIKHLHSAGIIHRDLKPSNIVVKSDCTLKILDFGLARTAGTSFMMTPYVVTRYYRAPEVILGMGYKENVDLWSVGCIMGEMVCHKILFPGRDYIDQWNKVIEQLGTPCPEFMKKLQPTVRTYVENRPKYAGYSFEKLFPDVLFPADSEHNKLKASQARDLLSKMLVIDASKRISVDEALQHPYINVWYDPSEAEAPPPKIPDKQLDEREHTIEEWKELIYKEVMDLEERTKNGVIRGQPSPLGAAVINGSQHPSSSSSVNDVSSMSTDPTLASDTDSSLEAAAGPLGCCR
Chain of Serine/threonine-protein kinase pim-1 (P11309 whole entry): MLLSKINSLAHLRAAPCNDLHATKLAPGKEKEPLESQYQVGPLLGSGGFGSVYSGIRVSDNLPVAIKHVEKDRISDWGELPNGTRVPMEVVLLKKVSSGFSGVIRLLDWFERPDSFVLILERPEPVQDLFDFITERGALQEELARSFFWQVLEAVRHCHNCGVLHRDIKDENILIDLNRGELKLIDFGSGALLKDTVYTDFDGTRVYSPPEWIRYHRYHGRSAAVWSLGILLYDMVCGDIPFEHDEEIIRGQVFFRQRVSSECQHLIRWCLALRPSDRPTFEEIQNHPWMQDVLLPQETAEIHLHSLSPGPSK

On to `COc1ccc(C(C#N)c2c(Cl)cnn(Cc3cccc4ccccc34)c2=O)cc1` (centres undefined), for which the IC50 in experiment [1] was 360 nM (active); in experiment [2] it was 1130 nM (active).

For the compound `CC(=O)c1ccc(C(=O)Nc2ccc3[nH]c(C)nc3c2)s1`, the IC50 in experiment [3] was > 100000 nM (inactive).

With `O=C(Nc1cnccn1)Nc1cccc2c(O)cccc12`, the Ki in experiment [4] is > 3980 nM (inactive); in [5] it was 2000 nM (active); in experiment [6], > 3160 nM (inactive); in [7], > 3160 nM (inactive); in [8], 2000 nM (active); in [9] it was 1580 nM (active). Moreover, the Ki in [10] is 2000 nM (active); in experiment [11], 794 nM (active); in [12], > 6310 nM (inactive); in experiment [13] it was 316 nM (active); in experiment [14], 3980 nM (active); in experiment [15], 1000 nM (active). The Ki in experiment [16] is > 1580 nM (inactive); in experiment [17] it was > 6310 nM (inactive); in [18], > 5010 nM (inactive); in experiment [19], > 5010 nM (inactive); in experiment [20] it was > 3980 nM (inactive); in experiment [21], 126 nM (active). Besides, the Ki is > 6310 nM (inactive) in [22]; 1580 nM (active) in experiment [23]; 1580 nM (active) in [24]; 1000 nM (active) in [25]; > 3980 nM (inactive) in experiment [26]; > 2000 nM (inactive) in [27]. The Ki in experiment [28] is > 3160 nM (inactive); in experiment [29] it was 6.31 nM (active); in [30], 631 nM (active); in experiment [31], > 3160 nM (inactive); in experiment [32], > 6310 nM (inactive); in [33], 2000 nM (active). The inhibition constant (Ki) is 1580 nM (active) in [34]; > 3980 nM (inactive) in experiment [35]; > 3980 nM (inactive) in experiment [36]; > 6310 nM (inactive) in experiment [37]; > 3160 nM (inactive) in [38]; 316 nM (active) in [39]. Moreover, the Ki in experiment [40] is 3980 nM (active); in experiment [41], > 3980 nM (inactive); in experiment [42] it was 1000 nM (active); in [43], 200 nM (active); in experiment [44] it was > 3980 nM (inactive); in experiment [45], > 1260 nM (inactive). Further, the Ki in experiment [46] is 126 nM (active); in experiment [47] it was 5010 nM (active); in experiment [48] it was 1580 nM (active); in experiment [49], > 3980 nM (inactive); in [50], 1260 nM (active); in [51], > 3160 nM (inactive). In addition, the Ki is > 3980 nM (inactive) in experiment [52], 2000 nM (active) in experiment [53] and > 3980 nM (inactive) in experiment [54].
